The first experiment has as its target b-Raf (V600E) (Homo sapiens (Human), UniProt P15056, V600E). As to conditions: read-out: b-Raf IC-50; AlphaScreen, 60 min pre-incubation, 3 hours reaction. (In general: Alpha assays give light when donor and acceptor beads are brought close together.)
Chain of b-Raf (V600E) (P15056 whole entry V600E): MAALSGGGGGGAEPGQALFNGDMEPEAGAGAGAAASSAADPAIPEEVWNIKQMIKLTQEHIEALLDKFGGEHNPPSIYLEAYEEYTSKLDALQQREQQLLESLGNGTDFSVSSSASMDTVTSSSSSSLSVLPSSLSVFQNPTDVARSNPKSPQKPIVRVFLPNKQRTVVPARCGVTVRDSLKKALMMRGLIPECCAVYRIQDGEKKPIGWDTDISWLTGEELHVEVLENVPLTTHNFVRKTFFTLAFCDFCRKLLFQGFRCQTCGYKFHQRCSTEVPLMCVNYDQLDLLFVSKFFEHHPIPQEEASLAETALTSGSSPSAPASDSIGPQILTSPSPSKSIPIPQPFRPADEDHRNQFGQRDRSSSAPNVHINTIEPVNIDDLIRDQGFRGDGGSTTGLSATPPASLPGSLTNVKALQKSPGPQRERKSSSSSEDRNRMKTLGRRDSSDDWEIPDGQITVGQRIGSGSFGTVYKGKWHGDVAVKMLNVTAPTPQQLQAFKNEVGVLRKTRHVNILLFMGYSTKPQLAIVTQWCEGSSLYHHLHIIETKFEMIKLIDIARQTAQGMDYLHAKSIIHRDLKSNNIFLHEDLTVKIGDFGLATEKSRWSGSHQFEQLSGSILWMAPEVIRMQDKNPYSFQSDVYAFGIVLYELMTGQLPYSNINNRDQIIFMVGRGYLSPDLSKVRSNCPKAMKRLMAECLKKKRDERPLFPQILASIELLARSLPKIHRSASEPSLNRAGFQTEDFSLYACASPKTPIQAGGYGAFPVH
For the compound `Cc1ccc(NC(=O)c2ccnc(C(F)(F)F)c2)cc1-c1cc(N2CCOCC2)nc(OC2CNC2)n1` [Example 780, N-(3-(2-(azetidin-3-yloxy)-6-morpholinopyrimidin-4-yl)-4-methylphenyl)-2-(trifluoromethyl)isonicotinamide], the IC50 was 2.1 nM.
As to `Cc1ccc(NC(=O)c2ccnc(C(C)C)c2)cc1-c1cc(N2CCOCC2)n(C)c(=O)c1` [Example 482, 2-isopropyl-N-(4-methyl-3-(1-methyl-6-morpholino-2-oxo-1,2-dihydropyridin-4-yl)phenyl)isonicotinamide], the IC50 amounted to 0.6 nM.
In the case of `Cc1ccc(NC(=O)c2ccnc(C(C)(C)C#N)c2)cc1-c1cc(C2CCOCC2)c(=O)n(C)n1` [Example 675, 2-(2-cyanopropan-2-yl)-N-(4-methyl-3-(1-methyl-6-oxo-5-(tetrahydro-2H-pyran-4-yl)-1,6-dihydropyridazin-3-yl)phenyl)isonicotinamide], the IC50 was determined as 4.9 nM.
`Cc1ccc(NC(=O)c2cccc(C(F)(F)F)c2)cc1-c1nc(N2CCOCC2)c2c(cnn2C)n1` [Example 837, N-(4-methyl-3-(1-methyl-7-morpholino-1H-pyrazolo[4,3-d]pyrimidin-5-yl)phenyl)-3-(trifluoromethyl)benzamide]: the IC50 came to 0.2 nM.
With `CCC(F)(F)c1cc(C(=O)Nc2cnc(C)c(-c3cncc(N4CCOCC4)n3)c2)ccn1` [Example 537, 2-(1,1-difluoropropyl)-N-(6-methyl-5-(6-morpholinopyrazin-2-yl)pyridin-3-yl)isonicotinamide], the IC50 turned out to be 4.4 nM.
On to `Cc1ccc(C(=O)Nc2cccc(C(F)(F)F)c2)cc1-c1cc(N2CCOCC2)n(C)c(=O)c1` [Example 517, 4-methyl-3-(1-methyl-6-morpholino-2-oxo-1,2-dihydropyridin-4-yl)-N-(3-(trifluoromethyl)phenyl)benzamide], for which the IC50 amounted to 1.2 nM.
As for `Cc1ccc(NC(=O)c2ccnc(C(C)(C)F)c2)cc1-c1cc(N2CCOCC2)c(OC(C)C)nn1` [Example 595, 2-(2-fluoropropan-2-yl)-N-(3-(6-isopropoxy-5-morpholinopyridazin-3-yl)-4-methylphenyl)isonicotinamide], the IC50 was found to be 0.6 nM.
`Cc1ncc(NC(=O)c2cccc(C(F)(F)F)c2)cc1-c1cc(N2CCOCC2)nc(N2CCNCC2)n1` [Example 775, N-(6-methyl-5-(6-morpholino-2-(piperazin-1-yl)pyrimidin-4-yl)pyridin-3-yl)-3-(trifluoromethyl)benzamide]: the IC50 is 20 nM.
As to `Cc1ccc(NC(=O)c2ccnc(C(F)F)c2)cc1-c1cc(N2CCOCC2)nc(N2C(=O)OC[C@@H]2C)n1` [Example 785, (S)-2-(difluoromethyl)-N-(4-methyl-3-(2-(4-methyl-2-oxooxazolidin-3-yl)-6-morpholinopyrimidin-4-yl)phenyl)isonicotinamide], the IC50 turned out to be 7.5 nM.
For the compound `Cc1ncc(NC(=O)c2ccnc(C(C)(C)C#N)c2)cc1-c1cc(N2CCOCC2)nc(NC(C)(C)CO)n1` [Example 750, 2-(2-cyanopropan-2-yl)-N-(5-(2-((1-hydroxy-2-methylpropan-2-yl)amino)-6-morpholinopyrimidin-4-yl)-6-methylpyridin-3-yl)isonicotinamide], the IC50 was 22.4 nM.
Regarding `Cc1ccc(NC(=O)c2ccnc(C(C)(C)F)c2)cc1-c1cc(N2CCOCC2)c(=O)n(C)n1` [Example 654, 2-(2-fluoropropan-2-yl)-N-(4-methyl-3-(1-methyl-5-morpholino-6-oxo-1,6-dihydropyridazin-3-yl)phenyl)isonicotinamide], the IC50 is 1.7 nM.
Regarding `Cc1ncc(NC(=O)c2cc(C(F)(F)F)ccn2)cc1-c1cc(N2CCOCC2)n2nccc2n1` [Example 810, N-(6-methyl-5-(7-morpholinopyrazolo[1,5-a]pyrimidin-5-yl)pyridin-3-yl)-4-(trifluoromethyl)picolinamide], the IC50 turned out to be 1.4 nM.
As to `CCNc1nc(-c2cc(NC(=O)c3cnnc(C4CC4)c3)cnc2C)cc(N2CCOCC2)n1` [Example 727, 6-cyclopropyl-N-(5-(2-(ethylamino)-6-morpholinopyrimidin-4-yl)-6-methylpyridin-3-yl)pyridazine-4-carboxamide], the IC50 was 8.5 nM.
The same measure, in the same setting: the result for `Cc1ccc(NC(=O)c2cccc(S(C)(=O)=O)c2)cc1-c1cc(N2CCOCC2)n(C)c(=O)c1` [Example 488, N-(4-methyl-3-(1-methyl-6-morpholino-2-oxo-1,2-dihydropyridin-4-yl)phenyl)-3-(methylsulfonyl)benzamide] reads 1.9 nM; that for `CCOc1nnc(-c2cc(NC(=O)c3ccc(CO)c(C(F)(F)F)c3)cnc2C)cc1N1CCOCC1` [Example 627, N-(5-(6-ethoxy-5-morpholinopyridazin-3-yl)-6-methylpyridin-3-yl)-4-(hydroxymethyl)-3-(trifluoromethyl)benzamide], 3.7 nM.

The same experiment, now with this note: read-out: b-Raf IC-50; AlphaScreen, 60 min pre-incubation, reaction 3 hours at room temperature.
Regarding `Cc1ccc(NC(=O)c2ccnc(C(F)F)c2)cc1-c1cc(N2CCOCC2)nc(NCCO)c1F` [Example 1016, 2-(difluoromethyl)-N-(3-(3-fluoro-2-((2-hydroxyethyl)amino)-6-morpholinopyridin-4-yl)-4-methylphenyl)isonicotinamide], the IC50 is 2.27 nM.
As for `Cc1ccc(NC(=O)c2cccc(C(F)(F)F)c2)cc1-c1ccnc(N2CCOCC2=O)c1` [Example 1134], the IC50 is 4.99 nM.
For the compound `Cc1ncc(NC(=O)c2cc(C(C)(F)F)ccn2)cc1-c1cnc(OCCO)c(N2CCOCC2)c1` [Example 974, 4-(1,1-difluoroethyl)-N-(6′-(2-hydroxyethoxy)-2-methyl-5-morpholino-[3,3′-bipyridin]-5-yl)picolinamide], the IC50 came out at 2.78 nM.
On the same count and under the same terms, the result for `Cc1c(-c2nc3c(c(N4CCOCC4)n2)CS(=O)(=O)C3)cc(NC(=O)c2cccc(C(F)(F)F)c2)c[n+]1[O-]` [Example 887, 2-methyl-3-(4-morpholino-6,6-dioxido-5,7-dihydrothieno[3,4-d]pyrimidin-2-yl)-5-(3-(trifluoromethyl)benzamido)pyridine 1-oxide] reads 1300 nM; that for `Cc1ccc(NC(=O)c2ccnc(C(F)(F)F)c2)cc1-c1cc(N2CCOCC2)c2nccn2c1` [Example 849, N-(4-methyl-3-(8-morpholinoimidazo[1,2-a]pyridin-6-yl)phenyl)-2-(trifluoromethyl)isonicotinamide], 3.8 nM.
For the compound `Cc1ncc(NC(=O)c2ccnc(C(C)(C)O)c2)cc1-c1cc(N2CCOCC2)nc(N2CC(O)C2)c1` [Example 1082, N-(2′-(3-hydroxyazetidin-1-yl)-2-methyl-6′-morpholino-[3,4′-bipyridin]-5-yl)-2-(2-hydroxypropan-2-yl)isonicotinamide], the IC50 was 58.2 nM.
On to `Cc1ncc(NC(=O)c2ccnc(C3CC3)c2)cc1-c1cnc(OC2CC3(COC3)C2)c(N2CCOCC2)c1` [Example 966, N-(6′-(2-oxaspiro[3.3]heptan-6-yloxy)-2-methyl-5′-morpholino-[3,3′-bipyridin]-5-yl)-2-cyclopropylisonicotinamide], for which the IC50 was 1.35 nM.
On to `Cc1ccc(NC(=O)c2ccnc(C(C)(C)C#N)c2)cc1-c1nc(N2CCOCC2)c2[nH]ccc2n1` [Example 863, 2-(2-cyanopropan-2-yl)-N-(4-methyl-3-(4-morpholino-5H-pyrrolo[3,2-d]pyrimidin-2-yl)phenyl)isonicotinamide], for which the IC50 came to 2.8 nM.
Take `Cc1ccc(NC(=O)c2ccnc(C(C)(C)F)c2)cc1-c1cnc(OCCO)c(N2CCOCC2)c1` [Example 997, 2-(2-fluoropropan-2-yl)-N-(3-(6-(2-hydroxyethoxy)-5-morpholinopyridin-3-yl)-4-methylphenyl)isonicotinamide]: the IC50 amounted to 2 nM.
For the compound `Cc1ncc(NC(=O)c2ccnc(C(C)(C)F)c2)cc1-c1cc(NCCO)nc(N2CCOC[C@H]2C)c1` [Example 1138, (R)-2-(2-fluoropropan-2-yl)-N-(2′-((2-hydroxyethyl)amino)-2-methyl-6′-(3-methylmorpholino)-[3,4′-bipyridin]-5-yl)isonicotinamide], the IC50 amounted to 27.8 nM.
`Cc1ncc(NC(=O)c2ccnc(C(C)(C)F)c2)cc1-c1cc(NCCO)nc(N2CCOCC2)c1` [Example 1056, 2-(2-fluoropropan-2-yl)-N-(2′-((2-hydroxyethyl)amino)-2-methyl-6′-morpholino-[3,4′-bipyridin]-5-yl)isonicotinamide]: the IC50 is 11.2 nM.
On the same count and under the same terms, the result for `CCOc1ncc(-c2cc(NC(=O)c3cccc(S(C)(=N)=O)c3)ccc2C)cc1N1CCOCC1` (centres unmarked) [Example 975, N-(3-(6-ethoxy-5-morpholinopyridin-3-yl)-4-methylphenyl)-3-(S-methylsulfonimidoyl)benzamide] reads 1.81 nM.
Turning to `Cc1ncc(NC(=O)c2cc(C(C)(C)O)ccn2)cc1-c1cnc(OC2CC3(COC3)C2)c(N2CCOCC2)c1` [Example 969, N-(6′-(2-oxaspiro[3.3]heptan-6-yloxy)-2-methyl-5′-morpholino-[3,3′-bipyridin]-5-yl)-4-(2-hydroxypropan-2-yl)picolinamide], the IC50 is 18 nM.

The same experiment, now with this note: read-out: b-Raf IC-50; Table 2; AlphaScreen, 3 hours reaction.
For `CCOc1cc(C(=O)Nc2cnc(C)c(-c3cc(N4CCOCC4)c(=O)n(C)c3)c2)ccc1F` [Example 395, N-(1′,2-dimethyl-5′-morpholino-6′-oxo-1′,6′-dihydro-[3,3′-bipyridin]-5-yl)-3-ethoxy-4-fluorobenzamide], the IC50 was found to be 9.8 nM.
Turning to `Cc1ccc(NC(=O)c2ccnc(C3COC3)c2)cc1-c1cc(N2CCOCC2)c(=O)n(C)c1` [Example 356, N-(4-methyl-3-(1-methyl-5-morpholino-6-oxo-1,6-dihydropyridin-3-yl)phenyl)-2-(oxetan-3-yl)isonicotinamide], the IC50 is 3.9 nM.
`Cc1ncc(NC(=O)c2ccnc(C(F)(F)F)c2)cc1-c1cnc(OC2CCOCC2)c(N2CCOCC2)c1` [Example 314, N-(2-methyl-5′-morpholino-6′-((tetrahydro-2H-pyran-4-yl)oxy)-[3,3′-bipyridin]-5-yl)-2-(trifluoromethyl)isonicotinamide]: the IC50 worked out at 6 nM.
For the compound `CCOc1ncc(-c2cc(C(=O)Nc3ccnc(C(F)(F)F)c3)ccc2C)cc1N1CCOCC1` [Example 306, 3-(6-ethoxy-5-morpholinopyridin-3-yl)-4-methyl-N-(2-(trifluoromethyl)pyridin-4-yl)benzamide], the IC50 was 1.1 nM.

(Values after patent US9694016B2 (Novartis AG, priority 2013, dated 2017).)
